Experimental data published in ChEMBL document CHEMBL2429780, “Synthesis, antimicrobial and cytotoxic activity of 2-azetidinone derivatives of pyridyl benzimidazoles” (Med Chem Res, 2013).
Active and inactive are the calls of the source.

Assays:
Aspergillus clavatus [1] = assay: Antifungal activity against Aspergillus clavatus assessed as growth inhibition at 12.5 to 1000 ug/mL after 48 hrs by broth dilution assay; type: functional, organism-based
Pseudomonas aeruginosa [2] = assay: Antibacterial activity against Pseudomonas aeruginosa MTCC 1688 assessed as growth inhibition at 12.5 to 1000 ug/mL after 24 hrs by broth dilution assay; type: functional, organism-based
Candida albicans [3] = assay: Antifungal activity against Candida albicans assessed as growth inhibition at 12.5 to 1000 ug/mL after 48 hrs by broth dilution assay; type: functional, organism-based
Staphylococcus aureus [4] = assay: Antibacterial activity against Staphylococcus aureus MTCC 96 assessed as growth inhibition at 12.5 to 1000 ug/mL after 24 hrs by broth dilution assay; type: functional, organism-based
Streptococcus pyogenes [5] = assay: Antibacterial activity against Streptococcus pyogenes MTCC 442 assessed as growth inhibition at 12.5 to 1000 ug/mL after 24 hrs by broth dilution assay; type: functional, organism-based
Aspergillus niger [6] = assay: Antifungal activity against Aspergillus niger assessed as growth inhibition at 12.5 to 1000 ug/mL after 48 hrs by broth dilution assay; type: functional, organism-based
Escherichia coli [7] = assay: Antibacterial activity against Escherichia coli MTCC 443 assessed as growth inhibition at 12.5 to 1000 ug/mL after 24 hrs by broth dilution assay; type: functional, organism-based
Streptococcus pyogenes [8] = assay: Antibacterial activity against Streptococcus pyogenes MTCC 442 assessed as growth inhibition after 24 hrs by broth dilution assay; type: functional; settings: MTCC 442, 24 h
Pseudomonas aeruginosa [9] = assay: Antibacterial activity against Pseudomonas aeruginosa MTCC 1688 assessed as growth inhibition after 24 hrs by broth dilution assay; type: functional; settings: MTCC 1688, 24 h
HeLa = assay: Cytotoxicity against human HeLa cells assessed as growth inhibition after 24 to 72 hrs by MTT assay; type: cell-based
Aspergillus clavatus [10] = assay: Antifungal activity against Aspergillus clavatus assessed as growth inhibition after 48 hrs by broth dilution assay; type: functional
Escherichia coli [11] = assay: Antibacterial activity against Escherichia coli MTCC 443 assessed as growth inhibition after 24 hrs by broth dilution assay; type: functional; settings: MTCC 443, 24 h
Candida albicans [12] = assay: Antifungal activity against Candida albicans assessed as growth inhibition after 48 hrs by broth dilution assay; type: functional
Aspergillus niger [13] = assay: Antifungal activity against Aspergillus niger assessed as growth inhibition after 48 hrs by broth dilution assay; type: functional
Staphylococcus aureus [14] = assay: Antibacterial activity against Staphylococcus aureus MTCC 96 assessed as growth inhibition after 24 hrs by broth dilution assay; type: functional; settings: MTCC 96, 24 h

N#Cc1c(-c2ccc(Cl)cc2O)cc(-c2nc3ccccc3[nH]2)nc1N
inactive: growth inhibition (GI) (Aspergillus clavatus [1]) | growth inhibition (GI) (Pseudomonas aeruginosa [2]) | growth inhibition (GI) (Candida albicans [3]) | growth inhibition (GI) (Staphylococcus aureus [4]) | growth inhibition (GI) (Streptococcus pyogenes [5]) | growth inhibition (GI) (Aspergillus niger [6]) | growth inhibition (GI) (Escherichia coli [7])

Cc1ccccc1-c1cc(-c2nc3ccccc3[nH]2)nc(N)c1C#N
inactive: growth inhibition (GI) (Aspergillus clavatus [1]) | growth inhibition (GI) (Pseudomonas aeruginosa [2]) | growth inhibition (GI) (Candida albicans [3]) | growth inhibition (GI) (Staphylococcus aureus [4]) | growth inhibition (GI) (Streptococcus pyogenes [5]) | growth inhibition (GI) (Aspergillus niger [6]) | growth inhibition (GI) (Escherichia coli [7])

N#Cc1c(-c2cccc([N+](=O)[O-])c2)cc(-c2nc3ccccc3[nH]2)nc1/N=C/c1ccccc1
inactive: growth inhibition (GI) (Aspergillus clavatus [1]) | growth inhibition (GI) (Candida albicans [3]) | growth inhibition (GI) (Aspergillus niger [6])
1000 µg/mL: MIC (Streptococcus pyogenes [8]) | MIC (Pseudomonas aeruginosa [9])

Cc1cccc(-c2cc(-c3nc4ccccc4[nH]3)nc(N)c2C#N)c1
inactive: growth inhibition (GI) (Aspergillus clavatus [1]) | growth inhibition (GI) (Pseudomonas aeruginosa [2]) | growth inhibition (GI) (Candida albicans [3]) | growth inhibition (GI) (Staphylococcus aureus [4]) | growth inhibition (GI) (Streptococcus pyogenes [5]) | growth inhibition (GI) (Aspergillus niger [6]) | growth inhibition (GI) (Escherichia coli [7])

COc1cccc(-c2cc(-c3nc4ccccc4[nH]3)nc(N)c2C#N)c1
inactive: growth inhibition (GI) (Aspergillus clavatus [1]) | growth inhibition (GI) (Pseudomonas aeruginosa [2]) | growth inhibition (GI) (Candida albicans [3]) | growth inhibition (GI) (Staphylococcus aureus [4]) | growth inhibition (GI) (Streptococcus pyogenes [5]) | growth inhibition (GI) (Aspergillus niger [6]) | growth inhibition (GI) (Escherichia coli [7])

N#Cc1c(-c2ccc(Cl)cc2O)cc(-c2nc3ccccc3[nH]2)nc1N1C(=O)C(Cl)C1c1ccccc1 (centres undefined)
100 µg/mL: MIC (Staphylococcus aureus [14])
91.5 µM: IC50 (HeLa)
250 µg/mL: MIC (Streptococcus pyogenes [8]) | MIC (Aspergillus clavatus [10]) | MIC (Candida albicans [12]) | MIC (Aspergillus niger [13])
500 µg/mL: MIC (Escherichia coli [11])
200 µg/mL: MIC (Pseudomonas aeruginosa [9])

N#Cc1c(-c2cccc(Cl)c2)cc(-c2nc3ccccc3[nH]2)nc1/N=C/c1ccccc1
1000 µg/mL: MIC (Streptococcus pyogenes [8]) | MIC (Pseudomonas aeruginosa [9])
inactive: growth inhibition (GI) (Aspergillus clavatus [1]) | growth inhibition (GI) (Candida albicans [3]) | growth inhibition (GI) (Aspergillus niger [6])

N#Cc1c(-c2cccc(Cl)c2)cc(-c2nc3ccccc3[nH]2)nc1N1C(=O)C(Cl)C1c1ccccc1 (centres undefined)
25 µg/mL: MIC (Aspergillus niger [13]) | MIC (Staphylococcus aureus [14]) | MIC (Pseudomonas aeruginosa [9])
> 100 µM: IC50 (HeLa)
50 µg/mL: MIC (Streptococcus pyogenes [8]) | MIC (Aspergillus clavatus [10]) | MIC (Escherichia coli [11]) | MIC (Candida albicans [12])

Cc1cccc(-c2cc(-c3nc4ccccc4[nH]3)nc(N3C(=O)C(Cl)C3c3ccccc3)c2C#N)c1 (centres undefined)
78.2 µM: IC50 (HeLa)
500 µg/mL: MIC (Aspergillus clavatus [10]) | MIC (Escherichia coli [11]) | MIC (Candida albicans [12]) | MIC (Pseudomonas aeruginosa [9])
250 µg/mL: MIC (Streptococcus pyogenes [8]) | MIC (Aspergillus niger [13]) | MIC (Staphylococcus aureus [14])

N#Cc1c(-c2ccccc2O)cc(-c2nc3ccccc3[nH]2)nc1N1C(=O)C(Cl)C1c1ccccc1 (centres undefined)
500 µg/mL: MIC (Streptococcus pyogenes [8]) | MIC (Aspergillus clavatus [10]) | MIC (Escherichia coli [11]) | MIC (Candida albicans [12]) | MIC (Aspergillus niger [13]) | MIC (Staphylococcus aureus [14]) | MIC (Pseudomonas aeruginosa [9])
78 µM: IC50 (HeLa)

N#Cc1c(-c2ccc([N+](=O)[O-])cc2)cc(-c2nc3ccccc3[nH]2)nc1N1C(=O)C(Cl)C1c1ccccc1 (centres undefined)
> 100 µM: IC50 (HeLa)
12.5 µg/mL: MIC (Staphylococcus aureus [14]) | MIC (Pseudomonas aeruginosa [9])
100 µg/mL: MIC (Aspergillus clavatus [10]) | MIC (Candida albicans [12]) | MIC (Aspergillus niger [13])
25 µg/mL: MIC (Streptococcus pyogenes [8]) | MIC (Escherichia coli [11])

N#Cc1c(-c2cccc([N+](=O)[O-])c2)cc(-c2nc3ccccc3[nH]2)nc1N1C(=O)C(Cl)C1c1ccccc1 (centres undefined)
50 µg/mL: MIC (Streptococcus pyogenes [8]) | MIC (Aspergillus clavatus [10]) | MIC (Escherichia coli [11]) | MIC (Candida albicans [12]) | MIC (Aspergillus niger [13]) | MIC (Pseudomonas aeruginosa [9])
25 µg/mL: MIC (Staphylococcus aureus [14])
> 100 µM: IC50 (HeLa)

N#Cc1c(-c2cccc(O)c2)cc(-c2nc3ccccc3[nH]2)nc1N1C(=O)C(Cl)C1c1ccccc1 (centres undefined)
500 µg/mL: MIC (Streptococcus pyogenes [8]) | MIC (Escherichia coli [11]) | MIC (Aspergillus niger [13]) | MIC (Staphylococcus aureus [14]) | MIC (Pseudomonas aeruginosa [9])
250 µg/mL: MIC (Aspergillus clavatus [10]) | MIC (Candida albicans [12])
86.5 µM: IC50 (HeLa)
